Tests used:
ApoE−/− mice [1] = details: 22 week old animals, daily treatment for 6 weeks, clinically relevant doses; cited from earlier work
[2] = test system: patients with stable atherosclerotic cardiovascular disease; details: addition to aspirin; cited from earlier work
PAR1 = molecular target: T1, PAR1 (Homo sapiens, UniProt P25116); set-up: host or cells: patients; details: patients with stable atherosclerosis; cited from earlier work
T1 sequence (P25116 22-425): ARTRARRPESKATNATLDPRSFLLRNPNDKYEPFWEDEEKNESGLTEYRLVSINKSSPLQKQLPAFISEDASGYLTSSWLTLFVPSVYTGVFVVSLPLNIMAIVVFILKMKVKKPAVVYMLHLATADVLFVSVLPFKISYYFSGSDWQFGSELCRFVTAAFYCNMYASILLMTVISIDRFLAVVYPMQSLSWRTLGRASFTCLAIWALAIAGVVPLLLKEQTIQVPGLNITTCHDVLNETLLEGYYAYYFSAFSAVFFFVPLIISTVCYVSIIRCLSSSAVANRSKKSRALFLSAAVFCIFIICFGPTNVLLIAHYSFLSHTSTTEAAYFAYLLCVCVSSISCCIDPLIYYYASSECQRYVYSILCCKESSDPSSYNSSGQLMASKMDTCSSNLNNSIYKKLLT

ApoE−/− mice [3] = assay: Regression of established atheroma, weekly IV injections (Oil Red O en face, aortic root); format: in vivo, mouse
Protocol: For all atherosclerosis work, male ApoE−/− mice, from the age of 6-weeks, were fed with a high fat diet (HFD) consisting 35 kcal % fat, 1.25% cholesterol, and 0.5% cholic acid (Special Diet Services, Essex UK). Aortas were transplanted 2 weeks after starting the HFD, using a sleeve anastomosis technique described previously^11. Briefly, a 5 mm of the segment of the infrarenal donor aorta, flushed with 300 μl of saline containing 50 U of heparin, was transplanted into ApoE−/− recipient abdomen aortas (N=6 per group). Blood flow was confirmed by direct inspection after removal of the clamps. Mice were fed a HFD for 6-12 weeks post-transplantation before the experiment was terminated (Suppl FIG. 1A). To assess prevention of atheroma, mice (n=6 per group) received a single injection of PTL060 or controls by tail vein, and the experiments terminated 1-3 weeks later (Suppl FIG. 1B). For regression experiments, baseline groups (n=6) were fed a HFD to the age of 22 weeks before the mice were sacrificed. Experimental or control groups (n=3-6 per group) received weekly injections by tail vein for 3-6 weeks, beginning at age of 22 weeks before the experiments were terminated when mice were 25-28 weeks old (Suppl FIG. 1C).
Atherosclerotic lesions were evaluated as previously described^11. Simply, the entire length of the aorta was perfused with PBS, dissected using a dissecting microscope, longitudinally opened and stained with Oil Red O (ORO) solution (Sigma, UK) for 30 minutes, before being photographed with a digital camera (DSC-W320, Sony, Japan). The total aortic area and lesional area were measured by using Image J. Aortas from every animal were assessed. To assess lesions in the aortic sinus, hearts were embedded in paraffin, sectioned through the aortic root and incubated with elastin/van Gieson stain using the Accustain™ Elastin Stain kit (Sigma). Sections were examined on an Olympus U-ULH optical microscope (Olympus Optical Co. Ltd, Tokyo, Japan). Atheromatous lesional and total aortic root area was determined using Image-Pro Plus TM software version 4.0 (Media Cybernetics, Silver Spring, USA). At least three random sections were examined from each mouse in all groups.

TNFα, IFNγ, MIF and CCL2 = assay: Plasma cytokines and chemokines by ELISA; format: in vivo, mouse; details: HFD, weekly IV for 6 weeks, equimolar to PTL060 10 μg/g
Protocol: Anticoagulated whole blood (EDTA 30 mM pH8) was separated into plasma and cells by centrifugation (14,000 g for 10 mins). Plasma TNFα, IFN-γ, MIF and CCL2 were detected using separate specific ELISA kits (R&D Systems, Abingdon, UK) according to the manufacturers' instructions. Total cholesterol, high-density lipoprotein and low-density lipoprotein were determined using kits from Cell Biolabs, and Tryglycerides with a kit from Abcam, (both Cambridge, UK) according to the manufacturer's protocol. Thrombin clotting times were measured in 3.2% trisodium citrated plasma according to the protocol of Ignjatovic^16. Briefly, 100 μl mouse plasma was incubated with 2.5 U of human thrombin in a total volume of 300 μl (Enzyme Research Laboratories (ERL), Swansea, UK) at 37° C., and the time for a clot to form was measured (n=6 per group). For some experiments plasma was further centrifuged (20,000 g for 10 mins) to minimise the presence of extracellular vesicles.
FIG. 18: Illustrating the systemic proinflammatory state that accompanies development of atherosclerosis in ApoE^−/− mice fed a high fat diet, and the impact of PTL032 on that inflammation, compared to PTL060 and controls. Cytokines (interferon-gamma TNFalpha) and chemokines (macrophage migration inhibitory factor, MIF and CCL2) measured by ELISA of plasma samples harvested from mice at the times indicated. HFD=high fat diet. […]

MIF = assay: Vessel wall chemokine (MIF, CCL2) expression after IV injection, immunofluorescence; format: in vivo, mouse; details: single IV injection, PTL060 or equimolar dose
Protocol: Immunohistology of frozen cross sections were prepared and examined as previously described^11. Briefly, isolated tissues were snap-frozen and embedded in OCT compound (VWR International, Dorset, UK), sectioned at 5 μm thickness and fixed in methanol at −20° C. Frozen sections were immersed in 1% bovine serum albumin-phosphate-buffered saline (BSA-PBS) for 30 minutes and then incubated overnight at 4° C. with one or more of the following antibodies: rabbit polyclonal antibody to CD68, iNOs, CD206, TNFα, MIF, CCR7 ABCA1 (all from Abcam, Cambridge, UK), or hirudin (Biobyt, Cambridge, UK) or CCL2 (Lifespan BioScience, Inc., WA 98121, USA); goat polyclonal antibody to CD31 (Santa Cruz Biotechnology, Texas 75220, USA); rat anti-mouse CD68, CD11b (Serotec, Oxford, United Kingdom), CD31, IFNγ (BD Bioscience Pharmingen, Oxford, United Kingdom), Ly-6G (BioLegend, London, UK), IL-10 (Abcam) or biotinylated anti-HLL (RICS-2)^14; mouse anti-CCR2 (Abcam). […] Quantification of staining was achieved by expressing the area of positive staining as a ratio of the total lesion area, calculated using Image-Pro Plus TM, version 4.0. All quantification was performed by members of the team blinded to the identity of the sections. […] To detect macrophage-derived foam cells, frozen sections of aortic sinus were analysed by a combination of ORO staining and CD68 immunostaining. […]

Compound: O=C(NC[C@H]1CN(c2ccc(N3CCOCC3=O)cc2)C(=O)O1)c1ccc(Cl)s1 [rivaroxaban]
- atheroma burden reduced by (ApoE−/− mice [1]): 25%
- deaths, strokes and myocardial infarction [2]: fewer deaths, strokes and myocardial infarction

Compound: CCOC(=O)N[C@@H]1CC[C@@H]2[C@@H](C1)C[C@H]1C(=O)O[C@H](C)[C@H]1[C@H]2/C=C/c1ccc(-c2cccc(F)c2)cn1 [vorapaxar]
- risk of myocardial infarction (PAR1): reduce the risk of myocardial infarction

Compound: [Myr2]-KSSKSPSKKDDKKPGDC(S—S—CH2-CH2-Phe-Cha-Cha-Arg-Lys-Pro-Asn-Asp-Lys-NH2)NH2 [PTL032]
- animals with atherosclerotic plaques essentially completely eliminated (ApoE−/− mice [3]; HFD 16 weeks, then PTL032 7 μg/g weekly IV for 6 weeks): 4 out of the 6
- regression of atherosclerosis in direct comparison with PTL060 (ApoE−/− mice [3]; equimolar doses (PTL032 7 μg/g, PTL060 10 μg/g), weekly IV 6 weeks): considerably better regression of atherosclerosis than PTL060
- plasma chemokines and cytokines (IFNγ, TNFα, MIF, CCL2) (TNFα, IFNγ, MIF and CCL2): suppression of important chemokines and cytokines, almost back to levels seen in very young mice

Compound: bivalirudin
- atheroma burden after weekly injections (ApoE−/− mice [3]; HFD from age 6 to 22 weeks, then weekly IV for 6 weeks, PTL060 10 μg/g or equimolar doses of controls): developed increasing atheroma burden equivalent to that seen in saline control mice
- suppression of vessel wall chemokine (MIF) expression (MIF): not

Source: patent US20230167155A1, “COMPOSITIONS AND METHODS” (KING'S COLLEGE LONDON, priority 2020, published 2023)
